The text below walks through data of patent US20240382484A1, “COMPOSITION FOR TREATING, PREVENTING, OR AMELIORATING MELANOMA AND METHOD THEREOF” (Thomas Jefferson University, priority 2021, published 2024).

Structures are written as SMILES.

For test [1], the system named is WM1366-iCas9 xenograft. As to the kind of experiment: WM1366-iCas9 xenograft tumor growth in Nu/J mice. It counts as in vivo, mouse. Particulars: trametinib-containing chow (0.3 ppm) compared with control chow. From the text:
FIG. 13A-13D: PDPK1 depletion delayed xenograft tumor growth in Nu/J mice, in accordance with some embodiments. FIG. 13A, Tumor growth of WM1366-iCas9 and PDPK1 knockout (KO) cells, represented as the change in volume (mm^3) over time, was shown from the start of injection to the start of treatment as indicated. Cyan dots indicated sacrifice of mice due to lack of visible tumors. The dotted line at 50 mm^3 indicates the size at which trametinib treatment was started. FIG. 13B: Time for tumor growth of WM1366-iCas9 cells to the start of treatment in male and female mice. Lines represent median number of days from the time of tumor implantation to the treatment size of 50 mm^3. The mouse without tumor formation was monitored for 105 days. p values were calculated with an unpaired two-tailed t test. […] FIG. 13D: Kaplan-Meier survival curves of WM1366-iCas9 tumor-bearing in female or male mice as indicated. p values were calculated by GraphPad Prism 9.0 with Log-rank (Mantel-Cox) test. n.s., not significant.
Animal experiments were performed at Thomas Jefferson University in a facility accredited by the Association for the Assessment and Accreditation of Laboratory Animal Care and were approved by the Institutional Animal Care and Use Committee (protocol #1052). […] Mouse weights were monitored once a week or three times per week during drug treatment. […]

Test [2] relates to Nras Q61K mouse melanoma isografts of 1014 cells. In words: 1014 allograft model in immunocompetent B6 mice. The following applies: trametinib chow and/or GSK2334470 injection three times per week. It counts as in vivo.
Test [3] deals with 1014 tumors. In words: Flow cytometry of tumor-infiltrating immune cells from 1014 tumors. It counts as in vivo, mouse. Particulars: day 7 post treatment, over the control group.

As to `CC(=O)Nc1cccc(-n2c(=O)n(C3CC3)c(=O)c3c(Nc4ccc(I)cc4F)n(C)c(=O)c(C)c32)c1` [trametinib, N-(3-(3-cyclopropyl-5-((2-fluoro-4-iodophenyl)amino)-6,8-dimethyl-2,4,7-trioxo-3,4,6,7-tetrahydropyrido[4,3-d]pyrimidin-1(2H)-yl)phenyl)acetamide], the values for the tumor growth result in test [1] and in test [2] were “delayed” and “modest delay of tumor growth”, respectively. For the same molecule, the “frequency of CD8+ T cells within the CD45+ cell compartment” value in test [3] was “intermediate effect”.
